Data on 13 molecules can be found in patent US11077090B2, “Compounds and compositions and uses thereof” (Sunovion Pharmaceuticals Inc., priority 2016, dated 2021).

As usually defined, the minimal effective dose is the lowest level tested that produced the effect sought.

The subject of this assay is compound-treated mice. Kind of assay: Neuropharmacological assay (SmartCube): behavioral activity signature and minimal effective dose. The settings on record: for minimal effective dose: Mus musculus, ip, MED = dose having 50% or more total activity, read-out: Potency: minimal effective dose (MED), binned; for AD: ADHD (probability of activity signature) / AG: analgesic (probability of activity signature) / AX: anxiolytic (probability of activity signature) / CE: cognitive enhancer (probability of activity signature) / DP: anti-depressant (probability of activity signature) / MS: mood stabilizer (probability of activity signature) / PS: anti-psychotic (probability of activity signature) / SD: sedative hypnotic (probability of activity signature) / UN: uncharacterized CNS activity (probability of activity signature): i.p. 15 min before test, most efficacious dose(s). It is filed as in vivo. Summed up: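 Mice dosed i.p. 15 min before test, compound in N-methyl-2-pyrrolidone/PEG/propylene glycol, 3 doses; video-captured behavior matched to reference-drug signatures, giving per-class probabilities at most efficacious dose. MED from doses typically 0.3–30 mpk, defined as lowest dose with ≥50% total activity.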

In the case of `Cc1ccc2c(c1)[C@H](N)[C@H](C(C)C)OC2` [Example 211], the minimal effective dose lay in the range of 3 to 10 mg/kg, the “AD: ADHD (probability of activity signature)” value (“AD: ADHD” below) was “+ (LOQ ≤ + <5%)”, the “AG: analgesic (probability of activity signature)” value (from here on “AG: analgesic”) is listed as “+ (LOQ ≤ + <5%)” and the “AX: anxiolytic (probability of activity signature)” value (“AX: anxiolytic” below) is given as “++ (5% ≤ ++ <25%)”. Also, the “CE: cognitive enhancer (probability of activity signature)” value (“CE: cognitive enhancer” below) is recorded as “+ (LOQ ≤ + <5%)”, the “DP: anti-depressant (probability of activity signature)” value (“DP: anti-depressant” below) is “++ (5% ≤ ++ <25%)”, the “MS: mood stabilizer (probability of activity signature)” value (“MS: mood stabilizer” for short) is recorded as “+ (LOQ ≤ + <5%)” and the “PS: anti-psychotic (probability of activity signature)” value (from here on “PS: anti-psychotic”) is “++ (5% ≤ ++ <25%)”. Besides, the “SD: sedative hypnotic (probability of activity signature)” value (“SD: sedative hypnotic” for short) is reported as “+++ (25% ≤ +++ <50%)” and the “UN: uncharacterized CNS activity (probability of activity signature)” value (“UN: uncharacterized CNS activity” below) was “++++ (50% ≤ ++++)”.

As for `C[C@H]1OCc2c(F)cccc2[C@@H]1N.Cl` [Example 214], the minimal effective dose was in the range of 3 to 10 mg/kg, the “AD: ADHD” value was “++ (5% ≤ ++ <25%)”, the “AG: analgesic” value was “++ (5% ≤ ++ <25%)” and the “AX: anxiolytic” value is on record as “++ (5% ≤ ++ <25%)”. In addition, the “CE: cognitive enhancer” value is given as “++ (5% ≤ ++ <25%)”, the “DP: anti-depressant” value was “++ (5% ≤ ++ <25%)”, the “MS: mood stabilizer” value is reported as “+ (LOQ ≤ + <5%)” and the “PS: anti-psychotic” value is “++ (5% ≤ ++ <25%)”. For the same molecule, the “SD: sedative hypnotic” value is listed as “++ (5% ≤ ++ <25%)” and the “UN: uncharacterized CNS activity” value is “++++ (50% ≤ ++++)”.

As for `C[C@@H]1OCc2c(F)cccc2[C@@H]1N.Cl` [Example 215], the minimal effective dose lay in the range of 3 to 10 mg/kg, the “AD: ADHD” value is reported as “+ (LOQ ≤ + <5%)”, the “AG: analgesic” value is “++ (5% ≤ ++ <25%)” and the “AX: anxiolytic” value is “+++ (25% ≤ +++ <50%)”. The “CE: cognitive enhancer” value is “++ (5% ≤ ++ <25%)”, the “DP: anti-depressant” value is recorded as “++ (5% ≤ ++ <25%)”, the “MS: mood stabilizer” value is recorded as “+ (LOQ ≤ + <5%)” and the “PS: anti-psychotic” value is “++ (5% ≤ ++ <25%)”. Also, the “SD: sedative hypnotic” value is reported as “++ (5% ≤ ++ <25%)” and the “UN: uncharacterized CNS activity” value is “++++ (50% ≤ ++++)”.

With `C[C@H]1OCc2cccc(F)c2[C@@H]1N.Cl` [Example 216], the minimal effective dose lay in the range of 3 to 10 mg/kg, the “AD: ADHD” value was “+ (LOQ ≤ + <5%)”, the “AG: analgesic” value is “++ (5% ≤ ++ <25%)” and the “AX: anxiolytic” value was “++ (5% ≤ ++ <25%)”. In addition, the “CE: cognitive enhancer” value is reported as “+ (LOQ ≤ + <5%)”, the “DP: anti-depressant” value is on record as “++ (5% ≤ ++ <25%)”, the “MS: mood stabilizer” value was “+ (LOQ ≤ + <5%)” and the “PS: anti-psychotic” value is reported as “+ (LOQ ≤ + <5%)”. Besides, the “SD: sedative hypnotic” value is “+ (LOQ ≤ + <5%)” and the “UN: uncharacterized CNS activity” value was “++++ (50% ≤ ++++)”.

Take `C[C@@H]1OCc2cccc(F)c2[C@@H]1N.Cl` [Example 217]: the minimal effective dose lay in the range of 10 to 30 mg/kg, the “AD: ADHD” value was “+ (LOQ ≤ + <5%)”, the “AG: analgesic” value is reported as “+ (LOQ ≤ + <5%)” and the “AX: anxiolytic” value is on record as “+++ (25% ≤ +++ <50%)”. For the same molecule, the “CE: cognitive enhancer” value is “++ (5% ≤ ++ <25%)”, the “DP: anti-depressant” value was “++ (5% ≤ ++ <25%)”, the “MS: mood stabilizer” value was “+ (LOQ ≤ + <5%)” and the “PS: anti-psychotic” value was “++ (5% ≤ ++ <25%)”. The “SD: sedative hypnotic” value is reported as “+ (LOQ ≤ + <5%)” and the “UN: uncharacterized CNS activity” value was “++++ (50% ≤ ++++)”.

Consider `CCc1ccc2c(c1)[C@H](N)[C@H](C)OC2.Cl` [Example 219], for which the minimal effective dose lay within 3 to 10 mg/kg, the “AD: ADHD” value is “+ (LOQ ≤ + <5%)”, the “AG: analgesic” value is listed as “++ (5% ≤ ++ <25%)” and the “AX: anxiolytic” value was “++ (5% ≤ ++ <25%)”. The “CE: cognitive enhancer” value was “++ (5% ≤ ++ <25%)”, the “DP: anti-depressant” value was “+ (LOQ ≤ + <5%)”, the “MS: mood stabilizer” value was “+ (LOQ ≤ + <5%)” and the “PS: anti-psychotic” value is reported as “+ (LOQ ≤ + <5%)”. For the same molecule, the “SD: sedative hypnotic” value is reported as “+ (LOQ ≤ + <5%)” and the “UN: uncharacterized CNS activity” value is reported as “++++ (50% ≤ ++++)”.

As for `CCc1ccc2c(c1)[C@H](N)[C@@H](C)OC2.Cl` [Example 220], the minimal effective dose was 3 to 10 mg/kg, the “AD: ADHD” value is on record as “+ (LOQ ≤ + <5%)”, the “AG: analgesic” value is recorded as “++ (5% ≤ ++ <25%)” and the “AX: anxiolytic” value is listed as “++++ (50% ≤ ++++)”. Also, the “CE: cognitive enhancer” value is “++ (5% ≤ ++ <25%)”, the “DP: anti-depressant” value was “+ (LOQ ≤ + <5%)”, the “MS: mood stabilizer” value was “+ (LOQ ≤ + <5%)” and the “PS: anti-psychotic” value is listed as “+ (LOQ ≤ + <5%)”. Further, the “SD: sedative hypnotic” value is listed as “+ (LOQ ≤ + <5%)” and the “UN: uncharacterized CNS activity” value is given as “++++ (50% ≤ ++++)”.

With `Cc1ccc2c(c1)[C@@H](C)OC[C@H]2N` [Example 221], the minimal effective dose lay in the range of 3 to 10 mg/kg, the “AD: ADHD” value is “+ (LOQ ≤ + <5%)”, the “AG: analgesic” value was “+ (LOQ ≤ + <5%)” and the “AX: anxiolytic” value was “++ (5% ≤ ++ <25%)”. In addition, the “CE: cognitive enhancer” value is listed as “+ (LOQ ≤ + <5%)”, the “DP: anti-depressant” value is reported as “++ (5% ≤ ++ <25%)”, the “MS: mood stabilizer” value is listed as “+ (LOQ ≤ + <5%)” and the “PS: anti-psychotic” value is “++ (5% ≤ ++ <25%)”. For the same molecule, the “SD: sedative hypnotic” value is recorded as “+ (LOQ ≤ + <5%)” and the “UN: uncharacterized CNS activity” value is given as “++++ (50% ≤ ++++)”.

Turning to `Cc1ccc2c(c1)[C@H](C)OC[C@H]2N` [Example 222], the minimal effective dose was 3 to 10 mg/kg, the “AD: ADHD” value is “+ (LOQ ≤ + <5%)”, the “AG: analgesic” value was “+ (LOQ ≤ + <5%)” and the “AX: anxiolytic” value is listed as “++ (5% ≤ ++ <25%)”. Besides, the “CE: cognitive enhancer” value is reported as “+ (LOQ ≤ + <5%)”, the “DP: anti-depressant” value was “+ (LOQ ≤ + <5%)”, the “MS: mood stabilizer” value is given as “+ (LOQ ≤ + <5%)” and the “PS: anti-psychotic” value is reported as “+ (LOQ ≤ + <5%)”. Also, the “SD: sedative hypnotic” value was “+ (LOQ ≤ + <5%)” and the “UN: uncharacterized CNS activity” value is “++++ (50% ≤ ++++)”.

Consider `CC(C)C[C@@H]1OCc2ccccc2[C@@H]1N` [Example 223], for which the minimal effective dose is 3 to 10 mg/kg, the “AD: ADHD” value is given as “+ (LOQ ≤ + <5%)”, the “AG: analgesic” value is on record as “+ (LOQ ≤ + <5%)” and the “AX: anxiolytic” value is “++ (5% ≤ ++ <25%)”. Further, the “CE: cognitive enhancer” value was “+ (LOQ ≤ + <5%)”, the “DP: anti-depressant” value is “++ (5% ≤ ++ <25%)”, the “MS: mood stabilizer” value is “+ (LOQ ≤ + <5%)” and the “PS: anti-psychotic” value was “+ (LOQ ≤ + <5%)”. In addition, the “SD: sedative hypnotic” value was “++ (5% ≤ ++ <25%)” and the “UN: uncharacterized CNS activity” value is “+++ (25% ≤ +++ <50%)”.

As to `CC(C)C[C@H]1OCc2ccccc2[C@@H]1N` [Example 224], the minimal effective dose was in the range of 10 to 30 mg/kg, the “AD: ADHD” value is given as “+ (LOQ ≤ + <5%)”, the “AG: analgesic” value is “++ (5% ≤ ++ <25%)” and the “AX: anxiolytic” value is “++ (5% ≤ ++ <25%)”. The “CE: cognitive enhancer” value is given as “+++ (25% ≤ +++ <50%)”, the “DP: anti-depressant” value is on record as “+ (LOQ ≤ + <5%)”, the “MS: mood stabilizer” value is “+ (LOQ ≤ + <5%)” and the “PS: anti-psychotic” value is recorded as “+ (LOQ ≤ + <5%)”. In addition, the “SD: sedative hypnotic” value is listed as “++ (5% ≤ ++ <25%)” and the “UN: uncharacterized CNS activity” value is on record as “++ (5% ≤ ++ <25%)”.

As to `Cc1ccc(Cl)c2c1[C@H](N)[C@H](C)OC2.Cl` [Example 225], the minimal effective dose is 3 to 10 mg/kg, the “AD: ADHD” value is listed as “+ (LOQ ≤ + <5%)”, the “AG: analgesic” value is recorded as “++ (5% ≤ ++ <25%)” and the “AX: anxiolytic” value is “++ (5% ≤ ++ <25%)”. The “CE: cognitive enhancer” value is “++ (5% ≤ ++ <25%)”, the “DP: anti-depressant” value was “++ (5% ≤ ++ <25%)”, the “MS: mood stabilizer” value is “+ (LOQ ≤ + <5%)” and the “PS: anti-psychotic” value was “++ (5% ≤ ++ <25%)”. For the same molecule, the “SD: sedative hypnotic” value is given as “++ (5% ≤ ++ <25%)” and the “UN: uncharacterized CNS activity” value is “++++ (50% ≤ ++++)”.

With `Cc1cccc2c1[C@H](N)CO[C@@H]2C` [Example 226], the minimal effective dose lay within 10 to 30 mg/kg, the “AD: ADHD” value was “+ (LOQ ≤ + <5%)”, the “AG: analgesic” value was “+ (LOQ ≤ + <5%)” and the “AX: anxiolytic” value was “++ (5% ≤ ++ <25%)”. Besides, the “CE: cognitive enhancer” value was “++ (5% ≤ ++ <25%)”, the “DP: anti-depressant” value is on record as “++ (5% ≤ ++ <25%)”, the “MS: mood stabilizer” value is listed as “+ (LOQ ≤ + <5%)” and the “PS: anti-psychotic” value is “+++ (25% ≤ +++ <50%)”. Moreover, the “SD: sedative hypnotic” value is “+ (LOQ ≤ + <5%)” and the “UN: uncharacterized CNS activity” value is recorded as “++ (5% ≤ ++ <25%)”.
